ChEMBL document CHEMBL4725408, “Antibacterial Spiropyrimidinetriones with N-Linked Azole Substituents on a Benzisoxazole Scaffold Targeting DNA Gyrase” (J Med Chem, 2020)
Values after ≈ are worked out from the molar mass of the structure shown. Active and inactive are the calls of the source. No cut-off for these calls is given here.

How the values were obtained:
[1] = Volume of distribution at steady state in CD-1 mouse at 3 mg/kg, iv administered as 15 mins infusion by LC-MS/MS analysis; type: ADME, organism-based; settings: in vivo, read-out: Vdss
[2] = Protein binding in mouse plasma assessed as unbound fraction at 10 uM measured after 16 hrs by LC-MS/MS based equilibrium dialysis method; type: ADME, cell-free
Staphylococcus aureus [3] = test: Antibacterial activity against methicillin sensitive Staphylococcus aureus ARC516 infected in CD-1 mouse neutropenic thigh infection model assessed as reduction in colony forming unit at 25 to 50 mg/kg, ip measured after 24 hrs; type: functional, organism-based
Staphylococcus aureus [4] = test: Antibacterial activity against methicillin sensitive Staphylococcus aureus ARC516 infected in CD-1 mouse neutropenic thigh infection model assessed as log reduction in colony forming unit at 25 to 150 mg/kg, ip measured after 12 hrs relative to initial treatment control; type: functional; settings: dose mg/kg 25-150
Staphylococcus aureus [5] = test: Antibacterial activity against methicillin sensitive Staphylococcus aureus ARC516 infected in CD-1 mouse neutropenic thigh infection model assessed as log reduction in colony forming unit at 150 mg/kg, ip measured after 24 hrs relative to initial treatment control; type: functional; settings: dose mg/kg 25-150
[6] = Plasma clearance in Wistar Han rat at 3 mg/kg, iv administered as 15 mins infusion by LC-MS/MS analysis; type: ADME, organism-based; set-up: unit not given here; settings: in vivo, 0.25 h
Staphylococcus aureus [7] = test: Antibacterial activity against methicillin/quinolone-resistant Staphylococcus aureus ARC517 by broth microdilution method; type: functional
[8] = Plasma clearance in CD-1 mouse at 3 mg/kg, iv administered as 15 mins infusion by LC-MS/MS analysis; type: ADME, organism-based; settings: in vivo, 0.25 h
Staphylococcus aureus [9] = test: Antibacterial activity against methicillin sensitive Staphylococcus aureus ARC516 by broth microdilution method; type: functional
[10] = Protein binding in human plasma assessed as unbound fraction at 10 uM measured after 16 hrs by LC-MS/MS based equilibrium dialysis method; type: ADME, cell-free
[11] = Inhibition of recombinant Escherichia coli DNA gyrase AB expressed in Escherichia coli BL21 (DE3) using relaxed pJT519 DNA as substrate preincubated for 20 mins followed by 5'-BODIPY-TMR-TTCTTCTTCT addition and measured after 1 hr by fluorescence anisotropy
[12] = Protein binding in rat plasma assessed as unbound fraction at 10 uM measured after 16 hrs by LC-MS/MS based equilibrium dialysis method; type: ADME, cell-free
Haemophilus influenzae = test: Antibacterial activity against Haemophilus influenzae ARC737 by broth microdilution method; type: functional
[13] = Half life in CD-1 mouse at 3 mg/kg, iv administered as 15 mins infusion by LC-MS/MS analysis; type: ADME, organism-based; settings: in vivo
Escherichia coli = test: Antibacterial activity against Escherichia coli ARC523 by broth microdilution method; type: functional
Staphylococcus aureus [14] = test: Antibacterial activity against methicillin sensitive Staphylococcus aureus ARC516 in presence of human serum by broth microdilution method; type: functional
[15] = n-octanol/phosphate buffer partition coefficient, log D of the compound at pH 7.4 measured after 1 hr by UV-LC/MS based shake flask method; type: physicochemical
[16] = Unbound plasma clearance in Wistar Han rat at 3 mg/kg, iv administered as 15 mins infusion by LC-MS/MS analysis; type: ADME, organism-based; set-up: unit not given here; settings: in vivo, 0.25 h
[17] = Oral bioavailability in CD-1 mouse at 10 mg/kg by LC-MS/MS analysis; type: ADME, organism-based; settings: in vivo
L5178Y = test: Genotoxicity in mouse L5178Y cells using DAPI staining by microscopy based micronucleation assay; type: toxicity, cell-based
[18] = Oral bioavailability in Wistar Han rat at 10 mg/kg by LC-MS/MS analysis; type: ADME, organism-based; settings: in vivo
[19] = Solubility of the compound by high throughput solubility assay; type: physicochemical
Staphylococcus aureus [20] = test: Antibacterial activity against methicillin sensitive Staphylococcus aureus ARC516 infected in CD-1 mouse neutropenic thigh infection model assessed as log reduction in colony forming unit at 150 mg/kg, ip measured after 24 hrs relative to untreated control; type: functional
[21] = Unbound plasma clearance in CD-1 mouse at 3 mg/kg, iv administered as 15 mins infusion by LC-MS/MS analysis; type: ADME, organism-based; settings: in vivo, 0.25 h
Streptococcus pyogenes = test: Antibacterial activity against Streptococcus pyogenes ARC838 by broth microdilution method; type: functional
Streptococcus pneumoniae = test: Antibacterial activity against Streptococcus pneumoniae ARC548 by broth microdilution method; type: functional
[22] = Half life in Wistar Han rat at 3 mg/kg, iv administered as 15 mins infusion by LC-MS/MS analysis; type: ADME, organism-based; settings: in vivo
[23] = Volume of distribution at steady state in Wistar Han rat at 3 mg/kg, iv administered as 15 mins infusion by LC-MS/MS analysis; type: ADME, organism-based; settings: in vivo, read-out: Vdss

SMILES | CL [6] | MIC (Staphylococcus aureus [7]) [µM] | MIC (Staphylococcus aureus [9]) [µM] | fraction unbound at 16 h, 10 µM [10] | IC50 [11] [µM] | MIC (Haemophilus influenzae) [µM] | MIC (Escherichia coli) [µM] | MIC (Staphylococcus aureus [14]) [µM] | logD at 1 h [15] | CL free [16] | NOAEL (L5178Y) [µM] | solubility [19] [µM] | MIC (Streptococcus pyogenes) [µM] | MIC (Streptococcus pneumoniae) [µM] | also measured
COc1ncnn1-c1noc2c(F)c3c(cc12)CC1(C(=O)NC(=O)NC1=O)[C@H]1[C@H](C)O[C@H](C)CN31 | 13 | 0.39 (≈ 0.189 µg/mL) | 0.098 (≈ 0.0476 µg/mL) | 0.14 | 0.32 | 0.78 (≈ 0.379 µg/mL) | 30 (≈ 14.6 µg/mL) | 0.39 | 1.7 | 93 | 25 | 900 (≈ 437 µg/mL) | 0.39 (≈ 0.189 µg/mL) | 0.39 (≈ 0.189 µg/mL) | Vd [1]: 2.4 L/kg; fraction unbound at 16 h, 10 µM [2]: 0.2; Activity (Staphylococcus aureus [3]): inactive; log(activity) (Staphylococcus aureus [4]): 1; log(activity) (Staphylococcus aureus [5]): 2; CL [8]: 0.66 mL/h/kg; fraction unbound at 16 h, 10 µM [12]: 0.13; half-life [13]: 2.52 h; bioavailability [17]: 62%; bioavailability [18]: 48%; log(activity) (Staphylococcus aureus [20]): 4.5; CL free [21]: 3.3 mL/h/kg; half-life [22]: 1.69 h; Vd [23]: 1.9 L/kg
C[C@@H]1CN2c3c(cc4c(-n5cncn5)noc4c3Cl)CC3(C(=O)NC(=O)NC3=O)[C@H]2[C@H](C)O1 | 11.6 | 0.39 (≈ 0.184 µg/mL) | < 0.2 | 0.074 | 0.12 | 0.78 (≈ 0.368 µg/mL) | 12 (≈ 5.66 µg/mL) | 0.39 | 2 | 156 | < 6 | 420 (≈ 198 µg/mL) | 0.39 (≈ 0.184 µg/mL) | 0.39 (≈ 0.184 µg/mL) | 
CCNc1ncnn1-c1noc2c(F)c3c(cc12)CC1(C(=O)NC(=O)NC1=O)[C@H]1[C@H](C)O[C@H](C)CN31 | 11 | 0.098 (≈ 0.0489 µg/mL) | 0.049 (≈ 0.0244 µg/mL) | 0.037 | 0.097 | 0.39 (≈ 0.194 µg/mL) | 12 (≈ 5.98 µg/mL) | < 0.2 | 2.2 | 130 |  | 3 (≈ 1.5 µg/mL) | < 0.2 | < 0.2 | 
C[C@@H]1CN2c3c(cc4c(-n5ncnc5CN(C)C)noc4c3F)CC3(C(=O)NC(=O)NC3=O)[C@H]2[C@H](C)O1 | 23 | 0.78 (≈ 0.4 µg/mL) | < 0.2 | 0.18 | 0.59 | 1.6 (≈ 0.82 µg/mL) | 50 (≈ 25.6 µg/mL) | 0.39 | 0.93 | 110 |  | > 1000 | 1.6 (≈ 0.82 µg/mL) | 1.6 (≈ 0.82 µg/mL) | 
C[C@@H]1CN2c3c(cc4c(-n5ncnc5CO)noc4c3F)CC3(C(=O)NC(=O)NC3=O)[C@H]2[C@H](C)O1 | 37 | 1.6 (≈ 0.777 µg/mL) | 0.31 (≈ 0.15 µg/mL) | 0.17 | 0.19 | 0.78 (≈ 0.379 µg/mL) | 50 (≈ 24.3 µg/mL) | 0.49 | 1.4 | 220 | 12 | > 1000 | 0.78 (≈ 0.379 µg/mL) | 0.39 (≈ 0.189 µg/mL) | 
